Assay results: US20250171417A1, “HETEROCYCLIC DERIVATIVE, AND COMPOSITION AND PHARMACEUTICAL USE THEREOF” (Xizang Haisco Pharmaceutical Co., Ltd., priority 2021, published 2025)

test system: Prostate cancer cells 22RV1; test: Experiment on inhibiting 22RV1 cell proliferation (CellTiter-Glo, 7 days); assay type: cell-based; conditions: Homo sapiens, 168 h, 22RV1 cells, 7 days incubation, cells with nM printed beside the value, read-out: IC50 values for inhibition of 22RVI cells
Description: Prostate cancer cells 22RV1 were purchased from ATCC, the cell medium was RPMI 1640+10% FBS, and the cells were cultured in an incubator at 37° C. under 5% CO2. On day 1, the cells in the exponential growth phase were collected. With a 1% css-FBS phenol red-free medium, the cell suspension was adjusted to a corresponding concentration, plated at 2000 cells/well and incubated overnight. On day 2, compounds at different concentrations were added, and the plate was placed in the incubator and incubated for further 7 days. After the incubation was completed, according to operation instructions for a CellTiter-Glo kit (Promega, G7573), 50 μL of CellTiter-Glo reagents, which were already pre-melted and equilibrated to room temperature, were added to each well, and the mixtures were uniformly mixed for 2 min using a microplate shaker. The plate was placed at room temperature for 10 min. and then […] signal values were measured using a microplate reader (PHERAstar FSX). The results were processed according to formula (I), the inhibition rate of the compound at different concentrations was calculated, and the IC50 value of the compound with an inhibition rate of 50% was calculated using origin9.2 software with DoseResp function, wherein RLUcompound was the readout of the treated group, and RLUcontrol was the average value of the DMSO vehicle control group.

Row | Structure (SMILES) | IC50
1 | Cc1nn(C2(C(=O)Nc3ccc(C(F)(F)F)cc3Cl)CCC2)c(C)c1C#CC1CN(c2ccc3c(c2)C(=O)N(C2CCC(=O)NC2=O)C3=O)C1 (stereo not shown) [Compound 166, N-(2-chloro-4-(trifluoromethyl)phenyl)-1-(4-((1-(2-(2,6-dioxopiperidin-3-yl)-1,3-dioxoisoindolin-5-yl)azetidin-3-yl)ethynyl)-3,5-dimethyl-1H-pyrazol-1-yl)cyclobutane-1-carboxamide] | < 50 nM
2 | C=CCc1cc(C(F)(F)F)ccc1NC(=O)C(C)(C)n1cc(C#CC2CN(c3ccc4c(c3)C(=O)N(C3CCC(=O)NC3=O)C4=O)C2)cn1 (stereo not shown) [Compound 169, N-(2-allyl-4-(trifluoromethyl)phenyl)-2-(4-((1-(2-(2,6-dioxopiperidin-3-yl)-1,3-dioxoisoindolin-5-yl)azetidin-3-yl)ethynyl)-1H-pyrazol-1-yl)-2-methylpropanamide] | < 50 nM
3 | [2H]C([2H])([2H])C(C(=O)Nc1ccc(C(F)(F)F)cc1C#CC)(n1cc(C#CC2CN(c3ccc4c(c3)C(=O)N(C3CCC(=O)NC3=O)C4=O)C2)cn1)C([2H])([2H])[2H] (stereo not shown) [Compound 175, 2-(4-((1-(2-(2,6-dioxopiperidin-3-yl)-1,3-dioxoisoindolin-5-yl)azetidin-3-yl)ethynyl)-1H-pyrazol-1-yl)-2-(methyl-d3)—N-(2-(prop-1-yn-1-yl)-4-(trifluoromethyl)phenyl) propanamide-d3] | < 100 nM
4 | CN(C)c1ccc(NC(=O)C2(n3cc(C#CC4CN(c5ccc6c(c5)C(=O)N(C5CCC(=O)NC5=O)C6=O)C4)cn3)CCC2)c(Cl)c1 (stereo not shown) [Compound 181, N-(2-chloro-4-(dimethylamino)phenyl)-1-(4-(2-(1-(2-(2,6-dioxopiperidin-3-yl)-1,3-dioxo-2,3-dihydro-1H-isoindol-5-yl)azetidin-3-yl)ethynyl)-1H-pyrazol-1-yl)cyclobutane-1-carboxamide] | < 50 nM
5 | CN(C)c1cc(C(F)(F)F)ccc1NC(=O)C(C)(C)n1cc(C#CC2CN(c3ccc4c(c3)C(=O)N(C3CCC(=O)NC3=O)C4=O)C2)cn1 (stereo not shown) [Compound 182, N-(2-(dimethylamino)-4-(trifluoromethyl)phenyl)-2-(4-((1-(2-(2,6-dioxopiperidin-3-yl)-1,3-dioxoisoindolin-5-yl)azetidin-3-yl)ethynyl)-1H-pyrazol-1-yl)-2-methylpropanamide] | < 100 nM
6 | [2H]C([2H])([2H])C(C(=O)Nc1ccc(C(F)(F)F)cc1C1CC1)(n1cc(C#CC2CN(c3ccc4c(c3)C(=O)N(C3CCC(=O)NC3=O)C4=O)C2)cn1)C([2H])([2H])[2H] (stereo not shown) [Compound 187, N-(2-cyclopropyl-4-(trifluoromethyl)phenyl)-2-(4-((1-(2-(2,6-dioxopiperidin-3-yl)-1,3-dioxoisoindolin-5-yl)azetidin-3-yl)ethynyl)-1H-pyrazol-1-yl)-2,2-(dimethyl-d6) acetamide] | < 100 nM
7 | CC(C)(C(=O)Nc1ccc(C(F)(F)F)cc1C=C(F)F)n1cc(C#CC2CN(c3ccc4c(c3)C(=O)N(C3CCC(=O)NC3=O)C4=O)C2)cn1 (stereo not shown) [Compound 190, N-(2-(2,2-difluorovinyl)-4-(trifluoromethyl)phenyl)-2-(4-((1-(2-(2,6-dioxopiperidin-3-yl)-1,3-dioxoisoindolin-5-yl)azetidin-3-yl)ethynyl)-1H-pyrazol-1-yl)-2-methylpropanamide] | < 100 nM
8 | CC#Cc1cc(C(F)(F)F)ccc1NC(=O)C(C)(C)n1nc(C)c(C#CC2CN(c3ccc4c(c3)C(=O)N(C3CCC(=O)NC3=O)C4=O)C2)c1C (stereo not shown) [Compound 192, 2-(4-((1-(2-(2,6-dioxopiperidin-3-yl)-1,3-dioxoisoindolin-5-yl)azetidin-3-yl)ethynyl)-3,5-dimethyl-1H-pyrazol-1-yl)-2-methyl-N-(2-(prop-1-yn-1-yl)-4-(trifluoromethyl)phenyl) propanamide] | < 100 nM
9 | CC#Cc1cc(C(F)(F)F)ccc1NC(=O)C(C)(C)n1ncc(C#CC2CN(c3ccc4c(c3)C(=O)N(C3CCC(=O)NC3=O)C4=O)C2)c1C (stereo not shown) [Compound 194, 2-(4-((1-(2-(2,6-dioxopiperidin-3-yl)-1,3-dioxoisoindolin-5-yl)azetidin-3-yl)ethynyl)-5-methyl-1H-pyrazol-1-yl)-2-methyl-N-(2-(prop-1-yn-1-yl)-4-(trifluoromethyl)phenyl) propanamide] | < 100 nM

Now from value to molecule:

Row | IC50 | Structure (SMILES)
10 | < 50 nM | CC(C)(C(=O)Nc1ccc(C#N)cc1-n1cccn1)n1cc(C#CC2CN(c3ccc4c(c3)C(=O)N(C3CCC(=O)NC3=O)C4=O)C2)cn1 (stereo not shown) [Compound 172, N-(4-cyano-2-(1H-pyrazol-1-yl)phenyl)-2-(4-((1-(2-(2,6-dioxopiperidin-3-yl)-1,3-dioxoisoindolin-5-yl)azetidin-3-yl)ethynyl)-1H-pyrazol-1-yl)-2-methylpropanamide]
11 | < 50 nM | Cn1c(C(F)(F)F)ccc(NC(=O)C(C)(C)n2cc(C#CC3CN(c4ccc5c(c4)C(=O)N(C4CCC(=O)NC4=O)C5=O)C3)cn2)c1=O (stereo not shown) [Compound 178]
12 | < 100 nM | Cc1nn(C(C)(C)C(=O)Nc2ccc(C#N)cc2C2CC2)cc1C#CC1CN(c2ccc3c(c2)C(=O)N(C2CCC(=O)NC2=O)C3=O)C1 (stereo not shown) [Compound 184, N-(4-cyano-2-cyclopropylphenyl)-2-(4-((1-(2-(2,6-dioxopiperidin-3-yl)-1,3-dioxoisoindolin-5-yl)azetidin-3-yl)ethynyl)-3-methyl-1H-pyrazol-1-yl)-2-methylpropanamide]
13 | < 100 nM | [2H]C([2H])([2H])C(C(=O)Nc1ccc(C#N)cc1C1CC1)(n1cc(C#CC2CN(c3ccc4c(c3)C(=O)N(C3CCC(=O)NC3=O)C4=O)C2)cn1)C([2H])([2H])[2H] (stereo not shown) [Compound 186, N-(4-cyano-2-cyclopropylphenyl)-2-(4-((1-(2-(2,6-dioxopiperidin-3-yl)-1,3-dioxoisoindolin-S-yl)azetidin-3-yl)ethynyl)-1H-pyrazol-1-yl)-2,2-(dimethyl-d6) acetamide]
14 | < 100 nM | C#Cc1cc(C#N)ccc1NC(=O)C(C)(C)n1cc(C#CC2CN(c3ccc4c(c3)C(=O)N(C3CCC(=O)NC3=O)C4=O)C2)cn1 (stereo not shown) [Compound 189, N-(4-cyano-2-ethynylphenyl)-2-(4-((1-(2-(2,6-dioxopiperidin-3-yl)-1,3-dioxoisoindolin-5-yl)azetidin-3-yl)ethynyl)-1H-pyrazol-1-yl)-2-methylpropanamide]
15 | < 100 nM | CC#Cc1cc(C(F)(F)F)ccc1NC(=O)C(C)(C)n1cc(C#CC2CN(c3ccc4c(c3)C(=O)N(C3CCC(=O)NC3=O)C4=O)C2)c(C)n1 (stereo not shown) [Compound 193, 2-(4-((1-(2-(2,6-dioxopiperidin-3-yl)-1,3-dioxoisoindolin-5-yl)azetidin-3-yl)ethynyl)-3-methyl-1H-pyrazol-1-yl)-2-methyl-N-(2-(prop-1-yn-1-yl)-4-(trifluoromethyl)phenyl) propanamide]

same assay, conditions: Homo sapiens, 168 h, 22RV1 cells, 7 days incubation, cells without a unit of their own (μM), read-out: IC50 values for inhibition of 22RVI cells

Row | IC50 | Structure (SMILES)
16 | < 1000 nM | O=C1CCC(N2C(=O)c3ccc(N4CC(N5Cc6cn(C7(C(=O)Nc8ccc(C(F)(F)F)cc8Cl)CCC7)nc6C5)C4)cc3C2=O)C(=O)N1 (stereo not shown) [Compound 197, N-(2-chloro-4-(trifluoromethyl)phenyl)-1-(5-(1-(2-(2,6-dioxopiperidin-3-yl)-1,3-dioxoisoindolin-5-yl)azetidin-3-yl)-5,6-dihydropyrrolo[3,4-c]pyrazol-2 (4H)-yl)cyclobutane-1-carboxamide]
